In PubChem BioAssay (NCI):
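Interpolation was linear, between the two tested concentrations surrounding the appropriate level; five concentrations were tested over 48 hours in 96-well plates. Here, GI50 denotes the concentration required for 50% inhibition of growth. TGI: total growth inhibition.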

What was measured:
Assay in all cases: growth of human tumour cells (NCI), 48 h
MCF7 breast = test system: MCF7 breast
OVCAR-4 ovarian = test system: OVCAR-4 ovarian
CCRF-CEM leukemia = test system: CCRF-CEM leukemia
SW-620 colon = test system: SW-620 colon
HS 578T breast = test system: HS 578T breast
MALME-3M melanoma = test system: MALME-3M melanoma
OVCAR-8 ovarian = test system: OVCAR-8 ovarian
HCC-2998 colon = test system: HCC-2998 colon
HL-60(TB) leukemia = test system: HL-60(TB) leukemia
MDA-N = test system: MDA-N

Row | Structure (SMILES) | GI50 (MCF7 breast) | TGI (MCF7 breast) | GI50 (OVCAR-4 ovarian) | TGI (OVCAR-4 ovarian) | GI50 (CCRF-CEM leukemia) | TGI (CCRF-CEM leukemia) | GI50 (SW-620 colon) | TGI (SW-620 colon) | GI50 (HS 578T breast) | TGI (HS 578T breast) | GI50 (MALME-3M melanoma) | TGI (MALME-3M melanoma) | GI50 (OVCAR-8 ovarian) | TGI (OVCAR-8 ovarian) | GI50 (HCC-2998 colon) | TGI (HCC-2998 colon) | TGI (HL-60(TB) leukemia) | TGI (MDA-N)
1 | COc1cc(OC)cc(-c2n/c(=C\c3c(O)[nH]c4ccc(Cl)cc34)cc3c2=Nc2ccccc2-3)c1 | 1.82 µM | 4.66 µM | 1.76 µM | 3.77 µM | 3.34 µM | > 100 µM | 2.66 µM | 8 µM | 16.4 µM | 62.4 µM | 21.6 µM | 44.7 µM | 3.51 µM | 15.5 µM | 4.22 µM | 19.5 µM |  | 
2 | C/C(=C\Cc1cc(O)ccc1O)CCc1c(C)c(O)c(O)c(C=O)c1C |  |  |  | > 100 µM |  | 9.6 µM |  | > 100 µM |  |  |  | 80.2 µM |  | 47 µM |  | > 100 µM | > 100 µM | 
3 | O=C(N/N=C/c1ccc(Cl)cc1)c1cc(I)cc(I)c1O |  | > 100 µM |  | > 100 µM |  | > 100 µM |  | > 100 µM |  |  |  |  |  | > 100 µM |  |  | > 100 µM | > 100 µM
4 | C/C=C/[C@H]1O[C@@](O)([C@@H](C)[C@H](O)[C@H](C)[C@H]2OC(=O)/C(OC)=C/C(C)=C/[C@@H](C)[C@@H](O)[C@@H](CC)[C@@H](O)[C@H](C)C/C(C)=C/C=C/[C@@H]2OC)C[C@H](OC2CC(O)C(OC(N)=O)C(C)O2)[C@@H]1C (some centres not stated) |  | 16.9 µM |  | 20.8 µM |  | 0.723 µM |  | 15.3 µM |  | 48 µM |  | 0.73 µM |  | 21.2 µM |  | 18.6 µM |  | 
5 | CC(=O)c1ccc(N2CCN(C3=CC(=O)c4c(O)ccc(O)c4C3=O)CC2)cc1 |  | > 100 µM |  | > 100 µM |  | > 100 µM |  | > 100 µM |  |  |  | > 100 µM |  | > 100 µM |  | > 100 µM | 38.6 µM | 
6 | COc1nc(OC)nc(-c2cccc(F)c2)n1 |  | 45.1 µM |  | 39.6 µM |  | > 100 µM |  | 40.6 µM |  | 93.5 µM |  | 31.2 µM |  | 69.2 µM |  | 28.2 µM | > 100 µM | 
7 | Cc1ccnc(NC(=S)Nc2cccc(Cl)c2)c1 |  | > 100 µM |  | > 100 µM |  | > 100 µM |  | > 100 µM |  | > 100 µM |  |  |  | > 100 µM |  |  | > 100 µM | 
8 | COc1cc2c(cc1C)NC(=O)/C2=C\c1ccncc1 |  | 11.4 µM |  | > 100 µM |  | > 100 µM |  | > 100 µM |  | 8.1 µM |  | 32.1 µM |  | 5.92 µM |  | 30 µM | > 100 µM | 
9 | CC1=NN(C(=O)c2ccc(Cl)cc2)C(=O)/C1=C/c1ccc(Cl)cc1 |  |  |  | > 100 µM |  | > 100 µM |  | > 100 µM |  |  |  | > 100 µM |  | > 100 µM |  | > 100 µM | > 100 µM | 
10 | Cc1ccc(SC[C@@]2(C(F)F)NC(=O)NC2=O)cc1 |  |  |  | > 100 µM |  | > 100 µM |  | > 100 µM |  | > 100 µM |  | > 100 µM |  | > 100 µM |  | > 100 µM | > 100 µM | 
11 | COc1cc(OC)c2c(O)c(S(=O)(=O)c3ccc(C)cc3)c(=O)oc2c1 |  | > 100 µM |  | > 100 µM |  | > 100 µM |  | > 100 µM |  | > 100 µM |  | > 100 µM |  | > 100 µM |  | > 100 µM | > 100 µM | 
12 | C#CCSc1nc(N)c2ncn(C3OC(COP(=O)(O)O)C(O)C3O)c2n1 (configuration not stated) |  |  |  | > 239 µM |  | > 239 µM |  | > 239 µM |  |  |  | > 239 µM |  | > 239 µM |  | > 239 µM | > 239 µM | 
13 | COc1cccc(NC(=O)CC(=O)NNCC(=O)Nc2nnc(-c3ccc(N(CCC#N)S(=O)(=O)c4ccccc4)cc3)s2)c1 |  |  |  | > 100 µM |  |  |  | > 100 µM |  |  |  | > 100 µM |  | > 100 µM |  | > 100 µM |  | 
14 | CN1Cc2c(nc(-c3ccc(Br)cc3)c[n+]2[O-])N(C)C1 |  |  |  | > 100 µM |  | > 100 µM |  | > 100 µM |  |  |  | > 100 µM |  | > 100 µM |  |  | > 100 µM | 
15 | CC(=O)Nc1ccc(C(=O)N2N=C(C)/C(=C/c3cccc([N+](=O)[O-])c3)C2=O)cc1 |  |  |  | > 100 µM |  | > 100 µM |  | > 100 µM |  |  |  | > 100 µM |  | > 100 µM |  | > 100 µM | > 100 µM | 
16 | CN(/N=N/c1nc[nH]c1C(N)=O)C1CCCCC1 |  |  |  | > 100 µM |  | > 100 µM |  | > 100 µM |  |  |  | > 100 µM |  | > 100 µM |  | > 100 µM | > 100 µM | 
17 | C=CCC1(CC)C(=O)NC(=O)NC1=O |  |  |  |  |  | > 100 µM |  | > 100 µM |  |  |  | > 100 µM |  | > 100 µM |  | > 100 µM | > 100 µM | 
18 | Cc1ccc(S(=O)(=O)c2ccc([N+](=O)[O-])o2)cc1 |  | 7.13 µM |  | > 22 µM |  | 1.21 µM |  | 1.73 µM |  | 13.4 µM |  | 2.64 µM |  | 1.82 µM |  | 13.1 µM |  | 
19 | Oc1ccc(Cl)cc1C1=N/C(=N\C/N=C2\N=C(c3cc(Cl)ccc3O)CC(c3ccccc3)N2)NC(c2ccccc2)C1 (configuration not stated) |  | > 100 µM |  | > 100 µM |  | > 100 µM |  | > 100 µM |  |  |  |  |  | > 100 µM |  | > 100 µM | > 100 µM | > 100 µM
20 | Cc1c(C#N)c2nnn(-c3ccccc3)c(=O)n2c1-c1ccccc1 |  | > 66.6 µM |  | > 100 µM |  | > 20.7 µM |  | > 100 µM |  | > 100 µM |  | > 100 µM |  | > 100 µM |  | > 39.4 µM |  | 
